Consider two compounds from ChEMBL document CHEMBL1140110, “Hydration of drug-DNA complexes: greater water uptake for adriamycin compared to daunomycin” (J Med Chem, 2008).

Structures are written as SMILES.

The subject of assay [1] is DNA. The assay can be described thus: Binding affinity to calf thymus DNA in BPES buffer assessed as binding constant K/10^5 by fluorescence titration. The format is nucleic-acid assay. Conditions: Bos taurus.
In assay [2] the test system is DNA. Nature of the assay: Binding affinity to calf thymus DNA at 1 uM in BPES buffer by fluorescence titration relative to daunomycin. The format is nucleic-acid assay. Particulars: Bos taurus.

For `COc1cccc2c1C(=O)c1c(O)c3c(c(O)c1C2=O)C[C@@](O)(C(C)=O)C[C@@H]3O[C@H]1C[C@H](N)[C@H](O)[C@H](C)O1`, in the assay on DNA [1], the K was 230000 M⁻¹.

As to `COc1cccc2c1C(=O)c1c(O)c3c(c(O)c1C2=O)C[C@@](O)(C(=O)CO)C[C@@H]3O[C@H]1C[C@H](N)[C@H](O)[C@H](C)O1`, in the assay with DNA [2], the fold change (FC) is 2. Also, the K with DNA [1] stood at 605000 M⁻¹.
